Activity calls are given as the source filed them.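 How the source made its calls: active means mean IC50 below 10 µM; inactive means the rest.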
Each compound was assayed against Apelin receptor (Homo sapiens) (UniProt P35414) (assay: APJ antagonists, beta-arrestin recruitment, SAR follow-up, cell-based, luminescence, set 2 (AID 488803)). Settings: CHO-K1 APJ PathHunter beta-arrestin, antagonist.
Chain of Apelin receptor (Homo sapiens) (P35414 whole entry, looked up): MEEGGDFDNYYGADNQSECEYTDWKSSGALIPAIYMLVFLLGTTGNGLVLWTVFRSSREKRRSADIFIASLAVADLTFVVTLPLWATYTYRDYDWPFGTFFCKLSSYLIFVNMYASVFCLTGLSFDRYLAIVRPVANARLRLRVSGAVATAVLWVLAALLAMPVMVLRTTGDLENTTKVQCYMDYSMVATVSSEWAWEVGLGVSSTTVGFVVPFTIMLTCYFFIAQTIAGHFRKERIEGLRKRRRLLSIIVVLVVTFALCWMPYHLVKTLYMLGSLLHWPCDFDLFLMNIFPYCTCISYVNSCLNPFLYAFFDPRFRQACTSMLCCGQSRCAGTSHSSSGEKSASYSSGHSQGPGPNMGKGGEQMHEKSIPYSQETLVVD

SMILES | IC50
Cc1ccnc(SCc2cc(=O)c(OC(=O)c3cc(Cl)ccc3[N+](=O)[O-])co2)n1 | inactive
COc1cccc(C(=O)Oc2coc(CSc3nccc(C)n3)cc2=O)c1 | > 79 µM (inactive)
CC1(C)CC2(CC(c3ccc(F)cc3)c3ccc(O)cc3O2)NC(=S)N1 (stereo not drawn) | > 79 µM (inactive)
